According to publication PMC11219860, “A chemogenetic approach for dopamine imaging with tunable sensitivity” (Nature Communications, 2024):
Read-outs that look alike come from different tables or passages of the source.

Key:
dLight1.3b = dLight1.3b (Homo sapiens, UniProt P21728); assay: DA titrations on dLight1.3b-expressing HEK293 cells (confocal fluorescence imaging); format: cell-based
Experimental: Cells were transfected at 50–60% confluency in glass-bottomed dishes (either individually or in 24-well plates) using the Effectene transfection kit (Qiagen) according to manufacturer instructions, and imaged 24–48 h after transfection. The Flp-In™ T-REx™ 293 cells (Thermo Fisher) with a stably integrated dLight1.3b cassette[48] were cultured as follows: the cells were cultured using HEK293T cell medium with the addition of Blasticidin (15 µg/ml) and Hygromycin B (200 µg/ml). To induce the expression of dLight1.3b, doxycycline (500 ng/ml) was added to the culture medium for 24–48 hours. Before imaging, cells were rinsed with 1 mL of Hank’s Balanced Salt Solution (HBSS, Life Technologies) supplemented with Ca^2+ (2 mM) and Mg^2+ (1 mM), and imaged at room temperature with a final HBSS volume of either 100 µL for each individual 1.5 cm glass bottom dish, or 500 µL for 24-well plates. Time-lapse imaging was performed on an inverted Zeiss LSM 800 confocal microscope using a 488 nm laser and a 40X oil-based objective. During imaging, ligands were added in bolus on the cells using a micropipette to reach the final specified concentrations of ligand over the cells. For quantification, except otherwise noted, regions of interest (ROI) were selected manually using the threshold function of Fiji to isolate the cell membrane. Sensor response (∆F/F) was calculated as the following: (F(t)-F_base)/F_base with F(t) being the ROI fluorescence value at each time point (t), and F_base being the mean fluorescence of the 10-time points immediately prior to ligand addition.

[1] = system: dLight1.3b-expressing HEK293T sniffer cells on primary DArgic neurons; assay: DA release imaging from cultured DArgic neurons with dLight1.3b sniffer cells; format: cell-based, mouse; details: DETQ 200 nM added to 4-AP perfusion
Experimental: Primary DA (DA) neurons were grown on a layer of cortical astrocytes. The astrocytes were first prepared from P0-P2 C57BL6 mice, grown in T75 flask and then seeded on collagen/poly-L-lysine coated 15 mm glass coverslips at a concentration of 100,000 cells/ml. The cells were allowed to grow until close to confluence before the seeding of neurons. Primary DArgic neurons were prepared and cultured from P0-P2 mouse pups using a previously described protocol. Briefly, the ventral midbrain of P0-P2 pups was dissected from DAT^IREScre x Ai9 mice in which DA neurons expressed the red fluorescent protein tdTomato. These were produced by crossing DAT^IREScre mice (catalog #006660, Jackson Labs[31]) to Ai9/tdTomato mice (catalog #007905, Jackson Labs[32]). Both of these lines were on a C57BL/6 J background. Midbrain cells were seeded at a concentration of 240,000 cells/ml on top of the astrocyte monolayer and allowed to grow for 10 days (10 DIV). Two days before imaging, expression of dLight1.3b was induced in stable HEK cells with doxycycline. One day prior to imaging, HEK cells were lifted using trypsin, and 150,000 HEK cells were seeded on top of 10 DIV-cultured neurons in doxycycline-supplemented neuronal medium. Imaging was performed on a confocal microscope (Nikon A1 HD25) using a 40X dry objective and a 488 nm laser to excite dLight1.3b and a 546 nm laser to activate tdTomato and identify DA neurons. On the day of imaging, physiological saline containing drugs at the specified concentration ([…], Sigma; SCH23390, Sigma; DETQ, Enamine) were applied on the culture using a computer-controlled perfusion system (Automate system). A field containing one or more DA neurons was selected based on the tdTomato signal. […]
Event detection was performed using a thresholding algorithm adapted from[80]. In brief, the recorded field of view was divided into square ROIs of 55 um x 55 um size. […] A rolling standard deviation was calculated with the same window size. Events were defined as timepoints at which the fluorescence intensity reading exceeds the averaged intensity by 5 standard deviations.

[2] = In vivo pharmacokinetics, free brain concentration (LC/MS); set-up: species or system mouse; details: 10 mg/kg i.p.
Experimental: To measure free brain and plasma concentrations of DETQ in the mouse, male C57Bl6/N mice from Taconic Biosciences (Germantown, NY, USA) weighing 23–25 g (9–10 weeks old) were used for this study. The animals were acclimated for at least 72 hours after arrival from the breeder and housed five per cage in “shoe box” size cages with free access to food and water (lights on from 5 am to 5 pm) before use. The experiment was approved by the Institutional IACUC committee, and Eli Lilly is an AAALAC-certified facility. DETQ (Eli Lilly, see above) was formulated as a fine suspension in 20% HPBCD in purified water using ultrasonication. The drug was administered intraperitoneally at 10 mg/kg body weight (10 mL/kg. dose volume) with four animals per time point (0.25, 0.5, 0.75, 1, 1.5, and 2 hr). The animals were decapitated at the time points indicated above, and their frontal brains (mainly frontal cortex) were rapidly dissected and frozen. Blood was collected at decapitation, and plasma was separated by centrifugation. Both samples were then stored at −80 °C until further analysis. DETQ concentrations were measured in plasma and brain tissues by liquid chromatography with tandem mass spectrometry (LC/MS). The samples were analyzed using an AB Sciex API 4000 quadrupole mass spectrometer (Applied Biosystems, Foster City, CA) with a TurboIonSpray interface. Brain samples were homogenized in a methanol-water solution (20:80) using a probe sonicator. Both brain and plasma samples underwent extraction procedures. Calibration curves were established by spiking blank plasma or brain samples with an internal standard. The system utilized Shimadzu LC-10AD pumps controlled by an SCL-10A controller (Kyoto, Japan). Sample injections were performed by a Z-215 liquid handler (Gilson, Middleton, WI). Chromatographic separation of all compounds was achieved using a Betasil javelin C18 HPLC column, 20 mm × 2.1 mm, 5 μm (Thermo Fisher Scientific, Waltham, MA). The unbound fraction in brain tissue samples was determined by equilibrium dialysis in mouse brain homogenate mixtures after incubation of the compound for 4.5 hours. The unbound brain concentrations were calculated from the following equation[24]: Totalbrainconcentration*Unboundfractioninbrain=Unboundbrainconcentration(Cu,brain)

[3] = 10 and 30 mg/kg per os, ref Svensson et al 2017, cited from earlier work

C[C@H]1c2cccc(C(C)(C)O)c2C[C@H](CO)N1C(=O)Cc1c(Cl)cccc1Cl [DETQ, 2-(2,6-dichlorophenyl)-1-((1S,3R)-3-(hydroxymethyl)-5-(2-hydroxypropan-2-yl)-1-methyl-3,4-dihydroisoquinolin-2(1H)-yl)ethan-1-one]
maximal leftward shift in the EC50 of DA (dLight1.3b): ~ 8 fold | sensor response to DETQ in the absence of DA (dLight1.3b): could not trigger a response | effect on the DA sensitivity of dLight1.3b (dLight1.3b; D1-PAM 5 μM): strong positive allosteric effect | sensor fluorescence in the presence of sub-maximal DA (dLight1.3b; DA 100 nM, DETQ 100 nM): strong and significant increase | maximal fluorescent response to a saturating concentration of DA (dLight1.3b; DA 100 µM, wide range of DETQ concentrations): not affected | Kb (dLight1.3b; DA titrations with 1 nM to 450 nM DETQ, allosteric EC50 shift, read-out: allosteric affinity constant (Kb)): 54 nM | effect on sensor responses to noradrenaline (NE) (dLight1.3b; DETQ 50 nM): potentiation | α factor (dLight1.3b; allosteric EC50 shift fit): 8.6 | number of detected phasic DA release events [1]: increased | sensor baseline signal (tonic DA) [1]: long-lasting increase | clearance from the brain ([2]; 2 hours post-injection): almost completely cleared | concentration at 1 h ([2]; male, C57Bl6/N, mouse, brain (frontal brain, unbound concentration), intraperitoneal, 1-hour post-injection, read-out: free brain level): < 50 nM | concentration at 15 min ([2]; male, C57Bl6/N, mouse, brain (frontal brain, unbound concentration), intraperitoneal, 15 minutes after dosing, read-out: free brain level): ~270 nM | concentration at 45 min ([2]; male, C57Bl6/N, mouse, brain (frontal brain, unbound concentration), intraperitoneal, 45 minutes post-injection, read-out: free brain level): ~110 nM | behavioral activity ([3]; hD1 mice): pronounced behavioral activation | behavioral activity ([3]; wild type mice): no behavioral activity
